Experimental data reported in patent US20220160762A1, “ENGINEERED IMMUNE CELLS” (NATIONAL UNIVERSITY OF SINGAPORE, priority 2019, published 2022).

Tests used:
CAR-Jurkat = experiment: T cell stimulation assay with kinase inhibitor, IL-2 ELISA readout; assay type: cell-based, human; details: for IC50: Homo sapiens, T-cell, CAR-Jurkat stimulated with CHO-L2, 18 hrs, read-out: IC50 of inhibitor on IL-2 production
Description: (§1) Artificial antigen presenting CHO cells (APC-CHO) were seeded onto a 96 well flat plate at 2-3×10^4 per well one day before. For APC-CHO requiring peptide pulsing, peptide was added at 4 uM for 3 hrs, and then washed away before CAR-T or TCR-T cells were added. Each CAR-T cell or TCR T cell sample was counted and suspended at a concentration of 10^6 per ml in culturing RPMI medium. 200 ul per well of suspended cell solution was then added into APC-CHO pre-seeded plate. For inhibitor experiments, inhibitor was added accordingly into the cell mixture. Technical triplicates were performed for all experiments. The cells were incubated at 37° C., 5% CO2 for 18 hrs. After incubation, supernatant was collected for human IL-2 ELISA assay, which was performed according to the manufacturer's protocol (Invitrogen). The T cell pellets were resuspended for surface staining or used for another round of stimulation by repeating the method described above.

TCR-Jurkat = experiment: as above; assay type: cell-based; details: Homo sapiens, TCR-Jurkat stimulated with CHO-L2, 18 hrs, read-out: IC50 of inhibitor on IL-2 production
Description: as §1

CAR-Jcam = experiment: T cell stimulation assay with SFK inhibitor, IL-2 ELISA readout; assay type: cell-based, human; details: CAR-Jcam (LCK-deficient)
Description: as §1

IC50 (CAR-Jurkat) [µM] | IC50 (TCR-Jurkat) [µM] | SMILES | IL-2 production after inhibitor was added (CAR-Jcam) | IL-2 production after inhibitor was added (CAR-Jurkat; CAR-Jurkat)
0.047 | 0.0066 | COc1cc(-c2nn([C@H]3CC[C@H](N4CCN(C(C)=O)CC4)CC3)c3ncnc(N)c23)ccc1NC(=O)c1cc2ccccc2n1C [A770041] | – | –
– | – | CC(C)(C)n1nc(-c2ccc(Cl)cc2)c2c(N)ncnc21 [PP2] | entirely quenched | entirely quenched
3.77 | 5.58 | CN(C)S(=O)(=O)c1ccc2c(c1)/C(=C/c1cc3c([nH]1)CCCC3)C(=O)N2 [SU6656] | – | –
